Earlier results on two compounds are cited in patent US20260314597A1, “A NOVEL APPROACH TO INTERFERE IN THE PHENYLPROPANOID BIOSYNTHETIC PATHWAY TO REDUCE PINK-RIB DISORDER IN FRESH LETTUCE” (University of Florida Research Foundation, Inc., priority 2022, published 2026).

Structures are written as SMILES. Entries after “also recorded” stand apart in the source; their conditions may differ. Read-outs that look alike come from different tables or passages of the source.

In data set [1] the test system is fresh-cut artichoke. Conditions: L-cysteine 0.5% or 41.3 mM; cited from earlier work.
The subject of data set [2] is PPO. Conditions: role: inhibitor; L-cysteine; cited from earlier work.
The test system of data set [3] is fresh-cut iceberg lettuce. Conditions: cited from earlier work.
The test system of data set [4] is chlorogenic acid concentration in homogenized lettuce tissue. Conditions: L-cysteine; 24 h at 25° C.; cited from earlier work.
For data set [5], the system named is PPO. Conditions: role: inhibitor; L-cysteine 1 to 5 mM; cited from earlier work.
Data set [6] deals with pear flesh. Conditions: melatonin 0.1 mM, cited from earlier work.
Data set [7] deals with cassava roots. Conditions: cited from earlier work.
Data set [8] has as its system PAL. Conditions: melatonin 0.1 mM; after 2 d at 4° C.; cited from earlier work.
The subject of data set [9] is PAL. Conditions: melatonin; 25 d storage at 4° C.; cited from earlier work.
For data set [10], the system named is litchi fruit. Conditions: cited from earlier work.
For data set [11], the system named is peach fruit. Conditions: cited from earlier work.
In data set [12] the test system is loquat. Conditions: melatonin; 25 d storage at 4° C.; cited from earlier work.
Data set [13] relates to PPO. Conditions: melatonin 0.4 mM; litchi pericarp; up to 6 d; cited from earlier work.
The subject of data set [14] is key enzymes in the melatonin biosynthesis pathway. Conditions: strawberry; cited from earlier work.
Data set [15] deals with litchi fruit. Conditions: melatonin 0.4 mM, cited from earlier work.
Setting [16] is: melatonin, cassava root, vs untreated.

With `N[C@@H](CS)C(=O)O` [L-cysteine], the “effect on browning of artichoke” value in data set [1] was “no effect; also recorded: developed browning or became yellow”. In addition, the PPO activity entry in data set [2] is on record as “inhibited PPO activity”; in [5] it was “linear decline in PPO activity”. Also, in data set [3] (L-cysteine 8.3 mM, 6 d at 8° C., vs control), the “reduction of discoloration of midrib surface area” value is on record as “greater than 80%”. Also, the “delay of pink rib development” value in data set [3] (L-cysteine 0.1% or 8.3 mM, 8° C., untreated discolored after 2 d) is 6 days. In addition, the “pink rib development, share of midrib surface area” value in data set [3] (L-cysteine 0.1% or 8.3 mM, 6 d at 8° C.) is listed as < 20 % of the midrib surface area. Moreover, in data set [4], the chlorogenic acid concentration entry was “reduced chlorogenic acid concentration”.
Regarding `COc1ccc2[nH]cc(CCNC(C)=O)c2c1` [melatonin], in [6] (after 4 d at 4° C.), the total phenolic content entry is on record as “higher”. In addition, the inhibition of browning entry in data set [6] (pear flesh, 8 d at 4° C.) is “no inhibition of browning”. In addition, the “key enzymes in the melatonin biosynthesis pathway” value is listed as “Upregulation” in [7] (cassava); “Upregulation” in [10] (melatonin, litchi); “Upregulation” in data set [14]. Further, the antioxidant capacity result is “increased” in [7] (setting [16]) and “increased” in data set [11] (melatonin, vs untreated). The “reactive oxygen species (ROS) levels” value was “declined” in data set [7] (setting [16]) and “declined” in data set [11] (melatonin, vs untreated). The “antioxidative enzymes that reduce hydrogen peroxide accumulation” value in [7] (melatonin, cassava) is “activated”. Also, the PAL activity result in [8] is “higher”; in [9], “increased”. Besides, the “increase in total phenolics” value in [10] (melatonin 0.4 mM, litchi pericarp, up to 6 d) is reported as “approximately 40%”. For the same compound, the “activity of several antioxidants” value in data set [10] (melatonin 0.4 mM, litchi) is given as “increased”. Besides, in data set [10] (melatonin 0.4 mM, litchi), the free radical development entry was “reduced”. Further, the lipid peroxidation result in data set [11] (melatonin 0.1 mM, via increased enzyme activity) was “inhibited lipid peroxidation”. In addition, the senescence result in data set [11] (melatonin 0.1 mM) is given as “delayed senescence”. Moreover, the total phenolics result in data set [11] (melatonin 0.1 mM) is listed as “maintained total phenolics”. Moreover, the chlorogenic acid concentration result in data set [12] is “increased”. The quality and lignification result in data set [12] was “maintaining quality and delaying lignification”. Also, the PPO activity result in [13] is recorded as “significant decrease”. Also, the “delay of pericarp browning” value in [15] (25° C.) is 4 days. In addition, in data set [15] (up to 6 d), the “discoloration of litchi pericarp” value is recorded as “significant decrease”.
